From US20100233145A1, “COMPOSITION USED AS A NUTRITIONAL SUPPLEMENT AND MEDICATION FOR THE TREATMENT OF DEGENERATIVE VISUAL DISORDERS AND INFLAMMATION” (APO PHARMACEUTICALS INTERNATIONAL B.V., priority 2006, published 2010)

Tested on: retina explants from rd1 mice
Test: in vitro organ culture of retina explants under serum-free conditions
Assay type: cell-based, mouse
Conditions: for Number of rows of photoreceptors average ± SD, (n): rd/rd retina explants, glutathione 3 μg/ml, ALA 2 μg/ml, zeaxanthin 0.3 μg/ml, lutein 0.3 μg/ml, control 1.5 ± 0.3
Procedure: The in vitro-experiments were performed on an organ culture of retina explants under serum-free conditions, as described in […], Ahuja P, Holmqvist B, Azadi […], van Veen T (2001) “Mouse retina explants after long-term culture in serum-free medium.”, J Chem Neuroanat 22: 263-273. The described technique was carried out on retina explants from rd1 mice as used in the in-vivo experiments. Retinas of rd1 mice were transferred at PN3 to an in vitro culture on flat nitrocellulose membranes and were kept in […] medium for 8 and 21 days, corresponding with the age PN11 and […] of the animals. All experiments were performed paired, wherein untreated retinas were compared to retinas which were exposed to a treatment. […] In order to achieve these concentrations the correct measured quantities of stock solution as described for the in vivo experiments were added to the medium. […] The rows of photoreceptors in the outer nuclear layer (ONL) were counted in 5 slices of each composition, wherein of each slice six different sections were analysed corresponding with the sections in the in vivo experiments. The differences between treated and untreated retinas were compared statistically with Student's paired t-test, or Student's unpaired t-test, wherein differences in which p<0.05 were deemed significant.

Structure (SMILES) | Number of rows of photoreceptors average ± SD, (n) | number of rows of photoreceptor cells, treated versus untreated explant (rd1 explant, FIGS. 6a and 6b)
CC1=C(/C=C/C(C)=C/C=C/C(C)=C/C=C/C=C(C)/C=C/C=C(C)/C=C/C2=C(C)C[C@@H](O)CC2(C)C)C(C)(C)C[C@H](O)C1 [zeaxanthin, (3R, 3′R)-β,β-carotene-3,3′-diol] | 1.9 ± 0.7 (n-6) rows | 
N[C@@H](CCC(=O)N[C@@H](CS)C(=O)NCC(=O)O)C(=O)O [glutathione, L-glutathione] | 2.0 ± 0.9 (n-6) rows | almost the same
CC1=C[C@H](O)CC(C)(C)[C@H]1/C=C/C(C)=C/C=C/C(C)=C/C=C/C=C(C)/C=C/C=C(C)/C=C/C1=C(C)C[C@@H](O)CC1(C)C [Lutein, (3R, 3′R, 6′R)-(3,c-carotene-3,3′-diol] | 2.0 ± 0.8 (n-6) rows | 
O=C(O)CCCCC1CCSS1 (stereo not drawn) [alpha lipoic acid, thioctic acid] | 1.8 ± 0.5 (n-6) rows | 
